Measured values taken from patent EP2966448B1, “METHOD FOR THE PREDICTION OR PROGNOSIS OF THE RESPONSE OF A HUMAN SUBJECT SUFFERING FROM CANCER TO TREATMENT WITH AN ANTAGONIST OF THE NK1 RECEPTOR” (priority 2013, dated 2014).
Like-named read-outs stand apart in the source and are kept apart here.

Assays:
[1] = test system: human primary tumor cells; assay: Inhibition of primary tumor cell cultures vs absence or presence of ERK  protein (Example 3; tumor type per table line); type: cell-based; settings: for Percentage of inhibition of cell cultures: 100 micromolar
Colon carcinoma = assay: Inhibition of primary tumor cell cultures (48 hours) vs NK1 receptor immunostaining (Example 1); type: cell-based; settings: Homo sapiens, 1 micromolar, read-out: Percentage of inhibition of cell cultures
Method: (§1) Cell cultures. To obtain tumor cells from human primary tumors we used the method described in De Bari et al. (De Bari et al. 2001). Briefly, small pieces of the tumors were digested into a hyaluronidase solution (Sigma-Aldrich, USA) at a concentration of 1 mg/ml during 15 minutes at 37°C, and then they were treated with 6 mg/ml of collagenase type IV (Invitrogen) during 2 hours at 37°C. Consecutively, cells were washed, and resuspended in the DMEM culture medium with high concentration of glucose (Dulbecco's Modified Eagle's Medium, Invitrogen) supplemented with 1% of antibiotics-antimycotics (Invitrogen) and with 1% of sodium pyruvate (Invitrogen), and the cells were seeded in culture slides at a concentration of 10.000 cells per square centimeter. When cells reached confluence, the adherent cells were separated using sterile trypsin at 0,5% (Invitrogen) and they were used among passages 3 and 9. For the assays shown next, tumor cells were seeded on slides at a concentration of 25.000 cells per well. A total of 6 wells containing the tumor cells were used as survival control. […] All the cultures were kept during 48 hours and later on recollected for their analysis.
(§2) Immunohistochemistry techniques. The presence of NK1 receptors was also analyzed using immunohistochemistry techniques. Briefly, a sample of each of the cultures of the cell lines used in the present invention, was centrifuged (5 minutes at 1.500 rpm) and the pellet obtained was dehydrated using increasing concentrations of ethanol and, finally, xylol. Then, said dehydrated samples were embedded in paraffin, creating a block of cells. Such paraffin blocks were cut with a microtome at 5 microns thickness, and were placed on microscope slides adequate to perform immunohistochemistry techniques. Consecutively, they were de-paraffinized by immersing them in xylol, to be finally hydrated using a solution containing decreasing concentrations of ethanol, and finally submerged them into water. […] After this, the samples were left to cool down at room temperature for 10 minutes. The endogenous peroxidase activity was blocked with 3% peroxide of hydrogen for 30 minutes at room temperature. After washing the samples with 0.05 M of Tris buffer, they were incubated with 10% non-immune pork serum at for 30 minutes at room temperature. To analyze the expression of NK1 receptors, the cellular samples were incubated in the presence of anti-NK1 antibodies (S8305, Sigma-Aldrich) diluted 1:1000, overnight at 4°C. Afterwards, the samples were washed in Tris buffer 0.05 M at room temperature. The next step was the addition of Envision System-HRP (Dako) reagents for 30 minutes at room temperature. Then, the samples were washed again in Tris buffer 0.05 M and the immunoreactivity was visualized through light microscopy with a chromogenic solution containing 3,3'-Diaminobenzidine (DAB+; Dako, USA). To differentiate the cell nuclei, they were slightly stained with hematoxylin. As negative control, it was used samples not incubated with the primary antibody anti-NK1, which was replaced by non-immune serum. All the samples were evaluated.
(§3) To value the immunostaining in each of the cases six cuts were performed to be analyzed by the immunohistochemistry technique. In each of the six cuts, it was counted cells in 20 fields (magnification 400x) using an Olympus microscope (model CX31). In each field it was counted the total number of cells and the number of cells presenting immunostaining, calculating afterwards the percentage of cells which presented immunostaining.

[2] = test system: human primary tumor cells; assay: Inhibition of primary tumor cell cultures vs amplification of the gene encoding the NK1 receptor (Example 6; tumor type per table line); type: cell-based; settings: for Percentage of inhibition of cell cultures: 100 micromolar
Method: (§4) Cell cultures. […] Briefly, small pieces of the tumors were digested into a hyaluronidase solution (Sigma-Aldrich, USA) at a concentration of 1 mg/ml during 15 minutes at 37°C, and then they were treated with 6 mg/ml of collagenase type IV (Invitrogen) during 2 hours at 37°C. Consecutively, cells were washed, and resuspended in the DMEM culture medium with high concentration of glucose (Dulbecco's Modified Eagle's Medium, Invitrogen) supplemented with 1% of antibiotics-antimycotics (Invitrogen) and with 1% of sodium pyruvate (Invitrogen), and the cells were seeded in culture slides at a concentration of 10.000 cells per square centimeter. When cells reached confluence, the adherent cells were separated using sterile trypsin at 0,5% (Invitrogen) and they were used among passages 3 and 9. For the assays shown next, tumor cells were seeded on slides at a concentration of 25.000 cells per well. A total of 6 wells containing the tumor cells were used as survival control. […] All the cultures were kept during 48 hours and later on recollected for their analysis.
The presence or absence of the amplification of the gene encoding for the NK1 receptor was determined, and then the cells were cultured in the presence of several antagonists of the NK1 receptor.
For each case, the presence or absence of amplification of the gene encoding for the NK1 receptor was determined.
In order to determine the presence of the amplification (increase in the number of copies) of the gene encoding the NK1 receptor (TAC1R), it was used the comparative genomic hybridization technique (CGH Array). Firstly genomic DNA was extracted from each case. Later, it was performed the marking and hybridization of the DNA of each sample together with DNA of a commercial reference without genomic alterations (from masculine or feminine sex, depending on the gender of the patient from whom the samples were obtained). The Array is Sureprint G3 Human CGH Microarray from the company Agilent was used, with an average separation between probes of 5.3Kb and 4.6Kb for the genes RefSeq. The reading of the microarray was done with the DNA Microarray Scanner G2565CA from Agilent, at a resolution of 3 µm. The analysis of the results was performed with the software Cytogenomics v 2.0.6.0 from Agilent with ADM-2: 6.0; Centralization: ON (Threshold: 6.0, Bin size: 10); Fuzzy zero: ON; Aberration filters: ON (minProbes=5 and minAvgAbsLopRatio= 0,5); Feature Level Filters : ON. The genomic coordinates are coincident with the NCBI36genome (hg18). Cases were distributed in two groups: Group I for those cases without the amplification of the gene encoding the NK1 receptor (locus 2p13.1-p12), and Group II for those cases with amplification of the gene encoding the NK1receptor (locus 2p13.1-p12).
The antibody against NK1 receptor (Table 36) was used at 1/50 concentration. The percentages of inhibition are expressed in percentages of variation in relation to control ± standard deviation.

Prostate carcinoma = assay: Inhibition of primary tumor cell cultures vs Kras mutation (Example 2); type: cell-based, human; settings: Homo sapiens, 100 micromolar, read-out: Percentage of inhibition of cell cultures
Method: as §1
(§5) In each case the presence or not of mutations in K-ras gene was determined.
(§6) To determine the existence of mutations in the K-ras gene DNA from cancer tumor cells was extracted from samples obtained from the different cancer tumor cells, using DNA extraction kits from Takara (Madison, WI, US) or Ambion (Huntingdon, Cambridgeshire, United Kingdom), following the manufacturer's instructions, and as it has been previously published (Di Fiore F, et al. 2007). Consecutively it was analyzed by sequencing the exon 2 of the KRAS gene, , by means of PCR amplification from previously extracted cancer tumor DNA, using the following sense primer (SEQ ID NO. 15): 5'-[sequence]-3' and anti-sense primer (SEQ ID NO. 16): 5'-[sequence]-3'. After the purification using the Qiagen extraction kit, the PCR products were sequenced using the Big Dye Terminator Kit V3.1 (Applied Biosystems, Foster City, CA, U.S.) and an ABI Prism 377 or 3100 DNA sequencer (Applied Biosystems). The presence of a heterozygous mutation in the KRAS gene in cancer tumor cells of the cultures was defined as the appearance of a mutant peak of a height of at least a third of the wild type. All the sequence analysis were executed at least twice in two independent PCR.
The percentages of inhibition are expressed in percentage of variation in relation to control ± standard deviation.

[3] = test system: Ovarian carcinoma (Adenocarcinoma); assay: as above; type: cell-based, human; settings: Homo sapiens, 100 micromolar, read-out: Percentage of inhibition of cell cultures
Method: as §4, §5, §6
(§7) The antibody against NK1 receptor (Table 16) was used at 1/50 concentration. The percentages of inhibition are expressed in percentage of variation in relation to control ± standard deviation.

Hodgkin lymphoma = assay: Inhibition of primary tumor cell cultures (48 hours) vs NK1 receptor immunostaining (Example 1); type: cell-based; settings: Homo sapiens, 1 micromolar, read-out: Percentage of inhibition of cell cultures
Method: as §1, §2, §3

Breast carcinoma = assay: as above; type: cell-based; settings: Homo sapiens, 1 micromolar, read-out: Percentage of inhibition of cell cultures
Method: as §1, §2, §3

[4] = test system: Thyroid carcinoma (follicular carcinoma); assay: Inhibition of primary tumor cell cultures vs Kras mutation (Example 2); type: cell-based, human; settings: Homo sapiens, 100 micromolar, read-out: Percentage of inhibition of cell cultures
Method: To obtain tumor cells from human primary tumors we used the method described in De Bari et al. (De Bari et al. 2001). Briefly, small pieces of the tumors were digested into a hyaluronidase solution (Sigma-Aldrich, USA) at a concentration of 1 mg/ml during 15 minutes at 37°C, and then they were treated with 6 mg/ml of collagenase type IV (Invitrogen) during 2 hours at 37°C. Consecutively, cells were washed, and resuspended in the DMEM culture medium with high concentration of glucose (Dulbecco's Modified Eagle's Medium, Invitrogen) supplemented with 1% of antibiotics-antimycotics (Invitrogen) and with 1% of sodium pyruvate (Invitrogen), and the cells were seeded in culture slides at a concentration of 10.000 cells per square centimeter. When cells reached confluence, the adherent cells were separated using sterile trypsin at 0,5% (Invitrogen) and they were used among passages 3 and 9. For the assays shown next, tumor cells were seeded on slides at a concentration of 25.000 cells per well. A total of 6 wells containing the tumor cells were used as survival control. […] All the cultures were kept during 48 hours and later on recollected for their analysis.
as §5, §6, §7

Glioma (astrocytoma) = assay: as above; type: cell-based, human; settings: Homo sapiens, 100 micromolar, read-out: Percentage of inhibition of cell cultures
Method: as §1, §5, §6, §7

[5] = NK1 receptor immunostaining Group 1 (less than 20% of the cells)
[6] = NK1 receptor immunostaining Group 2 (20-80% of the cells)
[7] = NK1 receptor immunostaining Group 3 (more than 80% of the cells)
[8] = NK1 receptor immunostaining Intensity grade 1
[9] = NK1 receptor immunostaining Intensity grade 2
[10] = NK1 receptor immunostaining Intensity grade 3
[11] = Cases with Kras non-mutated (wild type)

## CC(=O)N1CCN([C@H]2CCN(C(=O)N(C)[C@H](C)c3cc(C(F)(F)F)cc(C(F)(F)F)c3)[C@@H](c3ccc(F)cc3C)C2)CC1 [Casopitant]
[1]; Thyroid carcinoma (follicular carcinoma), cases with presence of ERK
  Percentage of inhibition of cell cultures: 96±6 percentage
[1]; Thyroid carcinoma (follicular carcinoma), cases without presence of ERK
  Percentage of inhibition of cell cultures: 26±4 percentage
[1]; Thyroid carcinoma (papillary carcinoma), cases with presence of ERK
  Percentage of inhibition of cell cultures: 97±4 percentage
[1]; Thyroid carcinoma (papillary carcinoma), cases without presence of ERK
  Percentage of inhibition of cell cultures: 28±3 percentage
[1]; Undifferentiated Pleomorphic Sarcoma (malignant fibrous histiocytoma grade 3), cases with presence of ERK
  Percentage of inhibition of cell cultures: 95±3 percentage
[1]; Undifferentiated Pleomorphic Sarcoma (malignant fibrous histiocytoma grade 3), cases without presence of ERK
  Percentage of inhibition of cell cultures: 26±4 percentage
[1]; Urinary bladder carcinoma (transitional cell carcinoma), cases with presence of ERK
  Percentage of inhibition of cell cultures: 98±2 percentage
[1]; Urinary bladder carcinoma (transitional cell carcinoma), cases without presence of ERK
  Percentage of inhibition of cell cultures: 29±4 percentage
[1]; cancer cell cultures that show more presence of ERK, compared, non-peptidic antagonists 100 micromolar, antibody 1/50
  inhibition of cell proliferation: higher inhibition
Colon carcinoma; [5]
  inhibition at 1 µM: 13 ± 3%
Colon carcinoma; [6]
  inhibition at 1 µM: 46 ± 3%
Colon carcinoma; [7]
  inhibition at 1 µM: 92 ± 3%
Colon carcinoma; [8]
  inhibition at 1 µM: 32 ± 4%
Colon carcinoma; [9]
  inhibition at 1 µM: 54 ± 4%
Colon carcinoma; [10]
  inhibition at 1 µM: 92 ± 2%
[2]; Breast carcinoma (ductal adenocarcinoma), Cases with amplification of the gene that encodes for the NK1 receptor
  Percentage of inhibition of cell cultures: 94±7 percentage
[2]; Breast carcinoma (ductal adenocarcinoma), Cases without amplification of the gene that encodes for the NK1 receptor
  Percentage of inhibition of cell cultures: 23±8 percentage
[2]; Burkitt Lymphoma, Cases with amplification of the gene that encodes for the NK1 receptor
  Percentage of inhibition of cell cultures: 93±6 percentage
[2]; Burkitt Lymphoma, Cases without amplification of the gene that encodes for the NK1 receptor
  Percentage of inhibition of cell cultures: 24±5 percentage
[2]; Carcinoma of the uterine cervix (Squamous cell carcinoma), Cases with amplification of the gene that encodes for the NK1 receptor
  Percentage of inhibition of cell cultures: 94±6 percentage
[2]; Carcinoma of the uterine cervix (Squamous cell carcinoma), Cases without amplification of the gene that encodes for the NK1 receptor
  Percentage of inhibition of cell cultures: 23±6 percentage
[2]; Colon carcinoma (Adenocarcinoma), Cases with amplification of the gene that encodes for the NK1 receptor
  Percentage of inhibition of cell cultures: 96±4 percentage
[2]; Colon carcinoma (Adenocarcinoma), Cases without amplification of the gene that encodes for the NK1 receptor
  Percentage of inhibition of cell cultures: 24±4 percentage
[2]; Endometrium carcinoma, Cases with amplification of the gene that encodes for the NK1 receptor
  Percentage of inhibition of cell cultures: 96±5 percentage
[2]; Endometrium carcinoma, Cases without amplification of the gene that encodes for the NK1 receptor
  Percentage of inhibition of cell cultures: 24±4 percentage
[2]; Gastric carcinoma (Adenocarcinoma), Cases with amplification of the gene that encodes for the NK1 receptor
  Percentage of inhibition of cell cultures: 95±5 percentage
[2]; Gastric carcinoma (Adenocarcinoma), Cases without amplification of the gene that encodes for the NK1 receptor
  Percentage of inhibition of cell cultures: 23±5 percentage
[2]; Glioma (astrocytoma), Cases with amplification of the gene that encodes for the NK1 receptor
  Percentage of inhibition of cell cultures: 95±4 percentage
[2]; Glioma (astrocytoma), Cases without amplification of the gene that encodes for the NK1 receptor
  Percentage of inhibition of cell cultures: 24±6 percentage
[2]; Lung carcinoma (non small cell lung carcinoma), Cases with amplification of the gene that encodes for the NK1 receptor
  Percentage of inhibition of cell cultures: 96±5 percentage
[2]; Lung carcinoma (non small cell lung carcinoma), Cases without amplification of the gene that encodes for the NK1 receptor
  Percentage of inhibition of cell cultures: 26±6 percentage
[2]; Lung carcinoma (small cell lung carcinoma), Cases with amplification of the gene that encodes for the NK1 receptor
  Percentage of inhibition of cell cultures: 95±4 percentage
[2]; Lung carcinoma (small cell lung carcinoma), Cases without amplification of the gene that encodes for the NK1 receptor
  Percentage of inhibition of cell cultures: 24±4 percentage
[2]; Melanoma (Nodular Melanoma), Cases with amplification of the gene that encodes for the NK1 receptor
  Percentage of inhibition of cell cultures: 97±5 percentage
[2]; Melanoma (Nodular Melanoma), Cases without amplification of the gene that encodes for the NK1 receptor
  Percentage of inhibition of cell cultures: 26±4 percentage
[2]; Non Hodgkin Lymphoma B (diffuse B cell lymphoma), Cases with amplification of the gene that encodes for the NK1 receptor
  Percentage of inhibition of cell cultures: 95±7 percentage
[2]; Non Hodgkin Lymphoma B (diffuse B cell lymphoma), Cases without amplification of the gene that encodes for the NK1 receptor
  Percentage of inhibition of cell cultures: 27±5 percentage
[2]; Non Hodgkin Lymphoma T (diffuse T cell lymphoma), Cases with amplification of the gene that encodes for the NK1 receptor
  Percentage of inhibition of cell cultures: 95±5 percentage
[2]; Non Hodgkin Lymphoma T (diffuse T cell lymphoma), Cases without amplification of the gene that encodes for the NK1 receptor
  Percentage of inhibition of cell cultures: 28±7 percentage
[2]; Ovarian carcinoma(Adenocarcinoma), Cases with amplification of the gene that encodes for the NK1 receptor
  Percentage of inhibition of cell cultures: 95±4 percentage
[2]; Ovarian carcinoma(Adenocarcinoma), Cases without amplification of the gene that encodes for the NK1 receptor
  Percentage of inhibition of cell cultures: 24±5 percentage
[2]; Pancreatic carcinoma (Adenocarcinoma), Cases with amplification of the gene that encodes for the NK1 receptor
  Percentage of inhibition of cell cultures: 97±5 percentage
[2]; Pancreatic carcinoma (Adenocarcinoma), Cases without amplification of the gene that encodes for the NK1 receptor
  Percentage of inhibition of cell cultures: 26±6 percentage
[2]; Prostate carcinoma, Cases with amplification of the gene that encodes for the NK1 receptor
  Percentage of inhibition of cell cultures: 96±5 percentage
[2]; Prostate carcinoma, Cases without amplification of the gene that encodes for the NK1 receptor
  Percentage of inhibition of cell cultures: 27±5 percentage
[2]; Renal cell carcinoma (clear cell renal cell carcinoma), Cases with amplification of the gene that encodes for the NK1 receptor
  Percentage of inhibition of cell cultures: 93±6 percentage
[2]; Renal cell carcinoma (clear cell renal cell carcinoma), Cases without amplification of the gene that encodes for the NK1 receptor
  Percentage of inhibition of cell cultures: 27±7 percentage
[2]; Thyroid carcinoma (follicular carcinoma), Cases with amplification of the gene that encodes for the NK1 receptor
  Percentage of inhibition of cell cultures: 94±6 percentage
[2]; Thyroid carcinoma (follicular carcinoma), Cases without amplification of the gene that encodes for the NK1 receptor
  Percentage of inhibition of cell cultures: 26±5 percentage
[2]; Thyroid carcinoma (papillary carcinoma), Cases with amplification of the gene that encodes for the NK1 receptor
  Percentage of inhibition of cell cultures: 96±5 percentage
[2]; Thyroid carcinoma (papillary carcinoma), Cases without amplification of the gene that encodes for the NK1 receptor
  Percentage of inhibition of cell cultures: 24±7 percentage
[2]; Undifferentiated Pleomorphic Sarcoma (malignant fibrous histiocytoma grade 3), Cases with amplification of the gene that encodes for the NK1 receptor
  Percentage of inhibition of cell cultures: 96±6 percentage
[2]; Undifferentiated Pleomorphic Sarcoma (malignant fibrous histiocytoma grade 3), Cases without amplification of the gene that encodes for the NK1 receptor
  Percentage of inhibition of cell cultures: 25±7 percentage
[2]; Urinary bladder carcinoma (transitional cell carcinoma), Cases with amplification of the gene that encodes for the NK1 receptor
  Percentage of inhibition of cell cultures: 97±3 percentage
[2]; Urinary bladder carcinoma (transitional cell carcinoma), Cases without amplification of the gene that encodes for the NK1 receptor
  Percentage of inhibition of cell cultures: 26±4 percentage
[2]; cancer cell cultures which show amplification in the genomic region encoding the NK1 receptor, compared, non-peptidic antagonists 100 micromolar, antibody 1/50
  inhibition of cell proliferation: higher inhibition
Prostate carcinoma; Cases with Kras mutated
  inhibition at 100 µM: 23 ± 3%
Prostate carcinoma; [11]
  inhibition at 100 µM: 93 ± 7%
[3]; Cases with Kras mutated
  inhibition at 100 µM: 29 ± 4%
[3]; [11]
  inhibition at 100 µM: 97 ± 6%
Hodgkin lymphoma; [5]
  inhibition at 1 µM: 15 ± 2%
Hodgkin lymphoma; [6]
  inhibition at 1 µM: 47 ± 4%
Hodgkin lymphoma; [7]
  inhibition at 1 µM: 95 ± 4%
Hodgkin lymphoma; [8]
  inhibition at 1 µM: 34 ± 5%
Hodgkin lymphoma; [9]
  inhibition at 1 µM: 54 ± 4%
Hodgkin lymphoma; [10]
  inhibition at 1 µM: 92 ± 4%
Breast carcinoma; [5]
  inhibition at 1 µM: 15 ± 3%
Breast carcinoma; [6]
  inhibition at 1 µM: 47 ± 4%
Breast carcinoma; [7]
  inhibition at 1 µM: 92 ± 3%
Breast carcinoma; [8]
  inhibition at 1 µM: 35 ± 3%
Breast carcinoma; [9]
  inhibition at 1 µM: 56 ± 6%
Breast carcinoma; [10]
  inhibition at 1 µM: 92 ± 2%
[4]; Cases with Kras mutated
  inhibition at 100 µM: 26 ± 4%
[4]; [11]
  inhibition at 100 µM: 96 ± 4%
Glioma (astrocytoma); Cases with Kras mutated
  inhibition at 100 µM: 26 ± 4%
Glioma (astrocytoma); [11]
  inhibition at 100 µM: 94 ± 6%
